From article PMC6656724 (Communications Biology, 2019) come the findings set out here.

Data set [1] has as its system HTT93Q flies (Drosophila melanogaster model of HD). Nature of the data set: Pseudopupil assay in Drosophila model of Huntington's disease. Format: in vivo. An excerpt:
To test the therapeutic efficacy of 1, we next employed a widely-used Drosophila melanogaster model of the inherited neurodegenerative disorder Huntington’s disease (HD)[30], which features pan-neuronal expression of a mutant huntingtin exon 1 fragment (HTT93Q). We have previously shown that several KMO inhibitors, including UPF 648 and Ro 61-8048, are neuroprotective in this Drosophila model. We thus tested the ability of 1 to ameliorate loss of photoreceptor neurons in the fly eye (rhabdomeres) using the pseudopupil assay. […] Although the efficacy of 1 may not be solely due to KMO inhibition in the fly, we have previously observed similar levels of neuroprotection with other KMO inhibitors.
Flies were kept on standard maize food at 25 °C with a 12:12 light/dark cycle. HTT93Q exon 1 expressing flies were generated by crossing female virgins carrying the UASHTT93Qexon1 transgene[30] (a gift of Larry Marsh and Leslie Thompson, University of California, Irvine) to males of elavGAL4 [c155] driver line, obtained from the Bloomington Drosophila Stock Center. For the drug feeding experiments, inhibitor 1 was dissolved in dimethylsulfoxide (DMSO) and added to maize media at the experimental concentrations. […] At day 7, rhabdomeres were scored as previously described. […] Rhabdomeres were examined using a Nikon Optiphot-2 light microscope, with ~ 80 ommatidia scored per fly.

Data set [2] can be described thus: Plasma protein binding (equilibrium dialysis). Format: in vitro ADME. The note with it: female, CD1, mouse, read-out: Fraction unbound (blood). On the procedure: for 1 minute and then centrifuged at 3000 rpm in 96-well blocks for 15 minutes (Allegra X12-R, Beckman Coulter, USA). All samples were analysed by means of UPLC/MS/MS on a Xevo TQs micro Mass Spectrometer (Waters Corporation, USA).
The unbound fraction was determined as the ratio of the peak area in artificial CSF to that in brain, with correction for dilution factor according to equation (5)21, […]
((1/f ! ,!""!#$%& ) − 1) + 1/D where D = dilution factor in brain homogenate and fu,apparent is the measured free fraction of diluted brain homogenate.
3.9 Plasma protein binding
In brief, a 96 well equilibrium dialysis apparatus was used to determine the free fraction in plasma for inhibitor 1 (HT Dialysis LLC, Gales Ferry, CT). Membranes (12-14 kDA cut-off) were conditioned in deionised water for 60 minutes, followed by conditioning in 80:20 deionised water:ethanol for 20 minutes, and then rinsed in isotonic buffer before use. Female CD1 mouse plasma was removed from the freezer and allowed to thaw on the day of experiment. […] All samples were analysed by UPLC-MS/MS on a Xevo TQs micro Mass Spectrometer (Waters
Corporation, USA). The unbound fraction was determined as the ratio of the peak area in buffer to that in plasma.

On to `Cc1cc2c(c(C)c1Cl)N(CC(=O)O)C(=O)CO2` [compound 1, (6-chloro-5,7-dimethyl-3-oxo-2,3-dihydro-4H-1,4-benzoxazin-4-yl) acetic acid], for which the Neurodegeneration prevented in data set [1] (HD flies, 100 μM, 7 days) was ~ 57%. Besides, the “Reduction in neuron loss (rhabdomeres)” value in data set [1] (HTT93Q flies, 10 μM or 100 μM for 7 days, vs untreated or DMSO) is “significant dose-dependent reduction”. Moreover, the fraction unbound (commonly free concentration divided by total concentration) at 5 h, 10 ug/mL in data set [2] was determined as 0.04.
